Results as given in patent US20250382344A1, “Soluble GLP1/GIP/NPY2 Receptor Triple Agonists” (Boehringer Ingelheim International GmH, priority 2024, published 2025).

Experiments:
[1] = Solubility in 0.1 M phosphate buffer at pH 7; assay type: physicochemical; conditions: 0.1 M phosphate buffer at pH 7, 10 mg/mL final peptide concentration, shaking 2 hours at room temperature, peptides as TFA-salts, measured sample pH 6.5-7.0; for solubility: read-out: Solubility
Procedure: Peptides (as TFA-salts) were weighed out in a filter unit (Mini-UniPrep Syringeless Filter 0.45 μm, Whatman PVDF), and 0.1 M phosphate buffer at pH 7 was added to achieve 10 mg/mL final peptide concentration. The peptides were dissolved by shaking the filter units horizontally at 600 rpm for 2 hours at room temperature. Samples were then filtered to remove any insoluble particles. Controls were prepared by weighing out the corresponding peptide solid material and dissolving it in an appropriate vehicle (e.g. ACN:H2O) to a final concentration of 1 mg/mL. Both, the control and sample were analyzed by reversed phase chromatography. The area under the peak of the sample was compared to the control and the solubility was calculated based on that ratio. The pH was measured and recorded for each sample.

[2] = biological target: T1, hGIPR (Homo sapiens, UniProt P48546); assay: hGIPR CreLuc assay in 0.5% and 100% plasma (CHO CRE-luciferase reporter cells); assay type: cell-based; conditions: 0.5% human plasma, read-out: hGIPR 0.5% hP
T1 construct: expressed in transfected cells; host or cells: CHO CRE-luciferase reporter cells
T1 sequence (P48546 22-466): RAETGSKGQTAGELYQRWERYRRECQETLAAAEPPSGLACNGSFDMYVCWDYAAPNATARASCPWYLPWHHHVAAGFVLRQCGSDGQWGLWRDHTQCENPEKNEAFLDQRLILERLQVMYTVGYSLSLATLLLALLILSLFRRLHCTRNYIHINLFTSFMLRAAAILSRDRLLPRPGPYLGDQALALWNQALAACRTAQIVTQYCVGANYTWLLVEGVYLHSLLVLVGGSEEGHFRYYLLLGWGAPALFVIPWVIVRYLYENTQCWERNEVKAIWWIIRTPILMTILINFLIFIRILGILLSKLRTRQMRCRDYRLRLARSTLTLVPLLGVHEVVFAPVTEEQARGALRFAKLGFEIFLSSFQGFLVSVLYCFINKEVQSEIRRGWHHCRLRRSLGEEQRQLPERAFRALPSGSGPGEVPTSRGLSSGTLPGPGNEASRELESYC
Source text: CHO and HEK-293 recombinant cell lines express a luciferase reporter gene under control of the CAMP responsive element (CRE). As a second recombinant protein the GLP-1 and NPY2 receptors were expressed in the reporter gene HEK cells, and the GIP receptor was expressed in the reporter gene CHO cells, respectively. Stimulation of these recombinant cells with an agonist leads to an increase of intracellular CAMP levels. In the presence of CAMP, the transcription factor CRE binding protein (CREB) binds to the CRE and to the CREB binding protein (CBP), which leads to transcription of the luciferase reporter gene. Peptides upon serial-dilution in 100% DMSO were transferred into 384-well assay plates with 5 μl pre-dispensed assay buffer (1×HBSS, 20 mM HEPES, pH7.4 supplemented with 0.5% human plasma) using acoustic dispensing on a Labcyte ECHO. Cryo-preserved transgenic reporter gene cells were thawed in assay buffer. 20 μl (10.000 cells/well) were added to the plate with the peptides and incubated for 4 hours at 37° C. in a humidified incubator. Following incubation, assay plates are equilibrated to room temperature, followed by addition of 25 μl of Bright-Glo™ Luciferase reagent, incubation at room temperature for 10 minutes and analysis of luminescence (Envision Reader). […] EC50 values were calculated by non-linear regression using sigmoid concentration-response with variable slope.
The same assays were run in the presence of 100% plasma with no additional buffer constituents.

solubility [1] [µg/mL]	Structure (SMILES)	further results
4400	CC[C@H](C)[C@H](NC(=O)[C@H](CC(C)C)NC(=O)[C@H](Cc1c[nH]cn1)NC(=O)[C@H](CCCNC(=N)N)NC(=O)[C@@H](NC(=O)[C@H](Cc1ccccc1)NC(=O)[C@H](C)NC(=O)C(C)(C)NC(=O)[C@H](CCC(N)=O)NC(=O)[C@H](C)NC(=O)[C@H](CCC(N)=O)NC(=O)[C@H](CCCCN)NC(=O)[C@H](CCC(=O)O)NC(=O)[C@H](CC(C)C)NC(=O)C(C)(C)NC(=O)[C@H](CCC(=O)O)NC(=O)[C@H](CO)NC(=O)[C@H](Cc1ccc(O)cc1)NC(=O)[C@H](CC(=O)O)NC(=O)[C@H](CO)NC(=O)[C@@H](NC(=O)[C@H](Cc1ccccc1)NC(=O)[C@@H](NC(=O)CNC(=O)[C@H](CCC(=O)O)NC(=O)C(C)(C)NC(=O)[C@@H](N)Cc1ccc(O)cc1)[C@@H](C)O)[C@@H](C)O)C(C)C)C(=O)N[C@@H](CC(N)=O)C(=O)N[C@@H](CCCCNC(=O)[C@@H](N)CCCCNC(=O)CC[C@H](NC(=O)CC[C@H](NC(=O)CC[C@H](NC(=O)CC[C@H](NC(=O)CC[C@H](NC(=O)CC[C@H](NC(=O)CCCCCCCCCCCCCCCCC(=O)O)C(=O)O)C(=O)O)C(=O)O)C(=O)O)C(=O)O)C(=O)O)C(=O)NC(C)(C)C(=O)N[C@H](C(=O)N[C@@H](CCCNC(=N)N)C(=O)N[C@@H](CCC(N)=O)C(=O)N[C@@H](CCCNC(=N)N)C(=O)N[C@@H](Cc1ccc(O)cc1)C(N)=O)[C@@H](C)O [Compound 112, Y-Aib-E-G-T-F-T-S-D-Y-S-E-Aib-L-E-K-Q-A-Q-Aib-A-F-V-R-H-L-I-N-K(1,3)-Aib-T-R-Q-R-Y-NH2.C18DA-gGlu-gGlu-gGlu-gGlu-gGlu-gGlu-eLys(1,2)]	–
800	CC[C@H](C)[C@H](NC(=O)[C@H](CC(C)C)NC(=O)[C@H](Cc1c[nH]cn1)NC(=O)[C@H](CCCNC(=N)N)NC(=O)[C@@H](NC(=O)[C@H](Cc1ccccc1)NC(=O)[C@H](C)NC(=O)C(C)(C)NC(=O)[C@H](CCC(N)=O)NC(=O)[C@H](C)NC(=O)[C@H](CCC(N)=O)NC(=O)[C@H](CCCCN)NC(=O)[C@H](CCC(=O)O)NC(=O)[C@H](CC(C)C)NC(=O)C(C)(C)NC(=O)[C@@H](NC(=O)[C@H](CO)NC(=O)[C@H](Cc1ccc(O)cc1)NC(=O)[C@H](CC(=O)O)NC(=O)[C@H](CO)NC(=O)[C@@H](NC(=O)[C@H](Cc1ccccc1)NC(=O)[C@@H](NC(=O)CNC(=O)[C@H](CCC(=O)O)NC(=O)C(C)(C)NC(=O)[C@@H](N)Cc1ccc(O)cc1)[C@@H](C)O)[C@@H](C)O)[C@@H](C)CC)C(C)C)C(=O)N[C@@H](CC(N)=O)C(=O)N[C@@H](CCCCNC(=O)COCCOCCNC(=O)CC[C@H](NC(=O)CC[C@H](NC(=O)CC[C@H](NC(=O)CC[C@H](NC(=O)CCCCCCCCCCCCCCCCC(=O)O)C(=O)O)C(=O)O)C(=O)O)C(=O)O)C(=O)NC(C)(C)C(=O)N[C@H](C(=O)N[C@@H](CCCNC(=N)N)C(=O)N[C@@H](CCC(N)=O)C(=O)N[C@@H](CCCNC(=N)N)C(=O)N[C@@H](Cc1ccc(O)cc1)C(N)=O)[C@@H](C)O [Compound 110, Y-Aib-E-G-T-F-T-S-D-Y-S-I-Aib-L-E-K-Q-A-Q-Aib-A-F-V-R-H-L-I-N-K(1,3)-Aib-T-R-Q-R-Y-NH2.C18DA-gGlu-gGlu-gGlu-gGlu-OEG(1,2)]	–
–	CC[C@H](C)[C@H](NC(=O)[C@H](C)NC(=O)[C@H](Cc1c[nH]cn1)NC(=O)[C@H](CCCNC(=N)N)NC(=O)[C@@H](NC(=O)[C@H](Cc1ccccc1)NC(=O)[C@H](C)NC(=O)C(C)(C)NC(=O)[C@H](CCC(N)=O)NC(=O)[C@H](C)NC(=O)[C@H](CCC(N)=O)NC(=O)[C@H](CCCCN)NC(=O)[C@H](CCC(=O)O)NC(=O)[C@H](CC(C)C)NC(=O)C(C)(C)NC(=O)[C@@H](NC(=O)[C@H](CO)NC(=O)[C@H](Cc1ccc(O)cc1)NC(=O)[C@H](CC(=O)O)NC(=O)[C@H](CO)NC(=O)[C@@H](NC(=O)[C@H](Cc1ccccc1)NC(=O)[C@@H](NC(=O)CNC(=O)[C@H](CCC(=O)O)NC(=O)C(C)(C)NC(=O)[C@@H](N)Cc1ccc(O)cc1)[C@@H](C)O)[C@@H](C)O)[C@@H](C)CC)C(C)C)C(=O)N[C@@H](CC(N)=O)C(=O)N[C@@H](CCCCNC(=O)[C@@H](N)CCCCNC(=O)CC[C@H](NC(=O)CC[C@H](NC(=O)CC[C@H](NC(=O)CC[C@H](NC(=O)CC[C@H](NC(=O)CC[C@H](NC(=O)CCCCCCCCCCCCCCCCC(=O)O)C(=O)O)C(=O)O)C(=O)O)C(=O)O)C(=O)O)C(=O)O)C(=O)NC(C)(C)C(=O)N[C@H](C(=O)N[C@@H](CCCNC(=N)N)C(=O)N[C@@H](CCC(N)=O)C(=O)N[C@@H](CCCNC(=N)N)C(=O)N[C@@H](Cc1ccc(O)cc1)C(N)=O)[C@@H](C)O [Compound 139, Y-Aib-E-G-T-F-T-S-D-Y-S-I-Aib-L-E-K-Q-A-Q-Aib-A-F-V-R-H-A-I-N-K(1,3)-Aib-T-R-Q-R-Y-NH2.C18DA-gGlu-gGlu-gGlu-gGlu-gGlu-gGlu-eLys(1,2)]	solubility at 2 h [1]: 9000 µg/mL
–	CC[C@H](C)[C@H](NC(=O)[C@H](CO)NC(=O)[C@H](Cc1ccc(O)cc1)NC(=O)[C@H](CC(=O)O)NC(=O)[C@H](CO)NC(=O)[C@@H](NC(=O)[C@H](Cc1ccccc1)NC(=O)[C@@H](NC(=O)CNC(=O)[C@H](CCC(=O)O)NC(=O)C(C)(C)NC(=O)[C@@H](N)Cc1ccc(O)cc1)[C@@H](C)O)[C@@H](C)O)C(=O)NC(C)(C)C(=O)N[C@@H](CC(C)C)C(=O)N[C@@H](CCC(=O)O)C(=O)N[C@@H](CCCCN)C(=O)N[C@@H](CCC(N)=O)C(=O)N[C@@H](C)C(=O)N[C@@H](CCC(N)=O)C(=O)NC(C)(C)C(=O)N[C@@H](C)C(=O)N[C@@H](Cc1ccccc1)C(=O)N[C@H](C(=O)N[C@@H](CCCNC(=N)N)C(=O)N[C@@H](Cc1c[nH]cn1)C(=O)N[C@@H](CC(C)C)C(=O)N[C@@H](CC(C)C)C(=O)N[C@@H](CC(N)=O)C(=O)N[C@@H](CCCCNC(=O)[C@@H](N)CCCCNC(=O)CC[C@H](NC(=O)CC[C@H](NC(=O)CC[C@H](NC(=O)CC[C@H](NC(=O)CC[C@H](NC(=O)CC[C@H](NC(=O)CCCCCCCCCCCCCCCCCCC(=O)O)C(=O)O)C(=O)O)C(=O)O)C(=O)O)C(=O)O)C(=O)O)C(=O)NC(C)(C)C(=O)N[C@H](C(=O)N[C@@H](CCCNC(=N)N)C(=O)N[C@@H](CCC(N)=O)C(=O)N[C@@H](CCCNC(=N)N)C(=O)N[C@@H](Cc1ccc(O)cc1)C(N)=O)[C@@H](C)O)C(C)C [Compound 80, Y-Aib-E-G-T-F-T-S-D-Y-S-I-Aib-L-E-K-Q-A-Q-Aib-A-F-V-R-H-L-L-N-K(1,3)-Aib-T-R-Q-R-Y-NH2.C20DA-gGlu-gGlu-gGlu-gGlu-gGlu-gGlu-eLys(1,2)]	EC50 [2]: 1.7 nM
9500	CC[C@H](C)[C@H](NC(=O)[C@H](CC(C)C)NC(=O)[C@H](Cc1c[nH]cn1)NC(=O)[C@H](CCCNC(=N)N)NC(=O)[C@@H](NC(=O)[C@H](Cc1ccccc1)NC(=O)[C@H](C)NC(=O)C(C)(C)NC(=O)[C@H](CCC(N)=O)NC(=O)[C@H](C)NC(=O)[C@H](CCC(N)=O)NC(=O)[C@H](CCC(=O)O)NC(=O)[C@H](CC(=O)O)NC(=O)[C@H](CC(C)C)NC(=O)C(C)(C)NC(=O)[C@@H](NC(=O)[C@H](CO)NC(=O)[C@H](Cc1ccc(O)cc1)NC(=O)[C@H](CC(=O)O)NC(=O)[C@H](CO)NC(=O)[C@@H](NC(=O)[C@H](Cc1ccccc1)NC(=O)[C@@H](NC(=O)CNC(=O)[C@H](CCC(=O)O)NC(=O)C(C)(C)NC(=O)[C@@H](N)Cc1ccc(O)cc1)[C@@H](C)O)[C@@H](C)O)[C@@H](C)CC)C(C)C)C(=O)N[C@@H](CC(N)=O)C(=O)N[C@@H](CCCCNC(=O)[C@@H](N)CCCCNC(=O)CC[C@H](NC(=O)[C@H](CCC(=O)O)NC(=O)CC[C@H](NC(=O)CC[C@H](NC(=O)CC[C@H](NC(=O)CC[C@H](NC(=O)CCCCCCCCCCCCCCCCC(=O)O)C(=O)O)C(=O)O)C(=O)O)C(=O)O)C(=O)O)C(=O)NC(C)(C)C(=O)N[C@H](C(=O)N[C@@H](CCCNC(=N)N)C(=O)N[C@@H](CCC(N)=O)C(=O)N[C@@H](CCCNC(=N)N)C(=O)N[C@@H](Cc1ccc(O)cc1)C(N)=O)[C@@H](C)O [Compound 40, Y-Aib-E-G-T-F-T-S-D-Y-S-I-Aib-L-D-E-Q-A-Q-Aib-A-F-V-R-H-L-I-N-K(1,3)-Aib-T-R-Q-R-Y-NH2.C18DA-gGlu-gGlu-gGlu-gGlu-gGlu-gGlu-eLys(1,2)]	–
